Measurements published in the NIST ThermoML archive (doi:10.1016/j.fluid.2010.10.028).

Assay: xn = mol fraction of the nth substance listed
Settings: Liquid, Vibrating tube method

CC(C)=O [acetone] + CCCCCCC
Settings	mass density [kg/m3]
367.5 K, 89850 kPa, x1 = 0.801	760.09
367.5 K, 89870 kPa, x1 = 0.492	727.6
367.5 K, 94840 kPa, x1 = 0.801	763.33
367.5 K, 94860 kPa, x1 = 0.492	730.65
367.5 K, 99820 kPa, x1 = 0.801	766.48
367.5 K, 104790 kPa, x1 = 0.801	769.51
367.5 K, 109770 kPa, x1 = 0.801	772.47
367.5 K, 114840 kPa, x1 = 0.801	775.42
367.5 K, 119830 kPa, x1 = 0.801	778.22
367.5 K, 124850 kPa, x1 = 0.801	780.96
367.5 K, 129850 kPa, x1 = 0.801	783.62
377.39 K, 1230 kPa, x1 = 0.611	632.91
377.39 K, 4860 kPa, x1 = 0.611	640.68
377.39 K, 9830 kPa, x1 = 0.7024	659.14
377.39 K, 9860 kPa, x1 = 0.611	650.09
377.39 K, 14860 kPa, x1 = 0.611	658.35
377.39 K, 39860 kPa, x1 = 0.611	690.09
377.39 K, 74880 kPa, x1 = 0.611	720.69
377.39 K, 84850 kPa, x1 = 0.611	727.78
377.39 K, 99800 kPa, x1 = 0.611	737.52
377.39 K, 119850 kPa, x1 = 0.611	749.19
377.39 K, 124860 kPa, x1 = 0.611	751.9
377.4 K, 1220 kPa, x1 = 0.492	624.83
377.4 K, 1220 kPa, x1 = 0.7024	641.88
377.4 K, 1230 kPa, x1 = 0.801	652.62
377.4 K, 4820 kPa, x1 = 0.7024	649.63
377.4 K, 4850 kPa, x1 = 0.801	660.44
377.4 K, 4860 kPa, x1 = 0.492	632.5
377.4 K, 9850 kPa, x1 = 0.492	641.73
377.4 K, 9860 kPa, x1 = 0.801	669.95
377.4 K, 14830 kPa, x1 = 0.7024	667.51
377.4 K, 14850 kPa, x1 = 0.801	678.33
377.4 K, 14860 kPa, x1 = 0.492	649.89
377.4 K, 19830 kPa, x1 = 0.7024	675.07
377.4 K, 19850 kPa, x1 = 0.492	657.2
377.4 K, 19850 kPa, x1 = 0.801	685.9
377.4 K, 19860 kPa, x1 = 0.611	665.8
377.4 K, 24840 kPa, x1 = 0.492	663.85
377.4 K, 24840 kPa, x1 = 0.7024	681.95
377.4 K, 24860 kPa, x1 = 0.611	672.6
377.4 K, 24870 kPa, x1 = 0.801	692.89
377.4 K, 29840 kPa, x1 = 0.7024	688.29
377.4 K, 29860 kPa, x1 = 0.611	678.86
377.4 K, 34830 kPa, x1 = 0.7024	694.18
377.4 K, 34840 kPa, x1 = 0.492	675.68
377.4 K, 34870 kPa, x1 = 0.611	684.68
377.4 K, 39820 kPa, x1 = 0.7024	699.65
377.4 K, 39850 kPa, x1 = 0.492	681.01
377.4 K, 44820 kPa, x1 = 0.7024	704.82
377.4 K, 44850 kPa, x1 = 0.611	695.17
377.4 K, 44870 kPa, x1 = 0.492	686.02
377.4 K, 49820 kPa, x1 = 0.7024	709.68
377.4 K, 49840 kPa, x1 = 0.492	690.72
377.4 K, 49850 kPa, x1 = 0.611	699.96
377.4 K, 54810 kPa, x1 = 0.7024	714.29
377.4 K, 54870 kPa, x1 = 0.801	725.65
377.4 K, 54930 kPa, x1 = 0.611	704.59
377.4 K, 59810 kPa, x1 = 0.7024	718.67
377.4 K, 59840 kPa, x1 = 0.492	699.41
377.4 K, 59850 kPa, x1 = 0.801	730.07
377.4 K, 59940 kPa, x1 = 0.611	708.91
377.4 K, 64790 kPa, x1 = 0.7024	722.84
377.4 K, 64830 kPa, x1 = 0.801	734.28
377.4 K, 64920 kPa, x1 = 0.611	713
377.4 K, 69890 kPa, x1 = 0.7024	726.94
377.4 K, 69900 kPa, x1 = 0.611	716.92
377.4 K, 69920 kPa, x1 = 0.492	707.37
377.4 K, 69930 kPa, x1 = 0.801	738.44
377.4 K, 74790 kPa, x1 = 0.4	757.14
377.4 K, 74790 kPa, x1 = 0.8992	757.14
377.4 K, 74870 kPa, x1 = 0.7024	730.75
377.4 K, 74920 kPa, x1 = 0.801	742.33
377.4 K, 79860 kPa, x1 = 0.7024	734.43
377.4 K, 79880 kPa, x1 = 0.611	724.31
377.4 K, 79890 kPa, x1 = 0.492	714.63
377.4 K, 79910 kPa, x1 = 0.801	746.08
377.4 K, 84840 kPa, x1 = 0.7024	737.97
377.4 K, 84870 kPa, x1 = 0.492	718.02
377.4 K, 84910 kPa, x1 = 0.801	749.68
377.4 K, 89820 kPa, x1 = 0.7024	741.37
377.4 K, 89840 kPa, x1 = 0.611	731.15
377.4 K, 89860 kPa, x1 = 0.492	721.32
377.4 K, 89880 kPa, x1 = 0.801	753.15
377.4 K, 94790 kPa, x1 = 0.7024	744.65
377.4 K, 94820 kPa, x1 = 0.611	734.38
377.4 K, 94830 kPa, x1 = 0.492	724.48
377.4 K, 94860 kPa, x1 = 0.801	756.48
377.4 K, 99780 kPa, x1 = 0.7024	747.85
377.4 K, 99820 kPa, x1 = 0.492	727.55
377.4 K, 99840 kPa, x1 = 0.801	759.75
377.4 K, 104750 kPa, x1 = 0.7024	750.93
377.4 K, 104780 kPa, x1 = 0.611	740.53
